Measurements reported in patent US8163768B2, “1,4-dihydropyridine-fused heterocycles, process for preparing the same, use and compositions containing them” (Aventis Pharma S.A.., priority 2005, dated 2012).

Molecular target: T1, Aurora2 (Aurora-A) (Homo sapiens, UniProt O14965)
T1 construct: Aurora-A: the full length recombinant protein including an N-terminal poly-histidine tail has been expressed in E. coli; poly-histidine (N); made in house; host or cells: E. coli
T1 sequence (O14965 1-403): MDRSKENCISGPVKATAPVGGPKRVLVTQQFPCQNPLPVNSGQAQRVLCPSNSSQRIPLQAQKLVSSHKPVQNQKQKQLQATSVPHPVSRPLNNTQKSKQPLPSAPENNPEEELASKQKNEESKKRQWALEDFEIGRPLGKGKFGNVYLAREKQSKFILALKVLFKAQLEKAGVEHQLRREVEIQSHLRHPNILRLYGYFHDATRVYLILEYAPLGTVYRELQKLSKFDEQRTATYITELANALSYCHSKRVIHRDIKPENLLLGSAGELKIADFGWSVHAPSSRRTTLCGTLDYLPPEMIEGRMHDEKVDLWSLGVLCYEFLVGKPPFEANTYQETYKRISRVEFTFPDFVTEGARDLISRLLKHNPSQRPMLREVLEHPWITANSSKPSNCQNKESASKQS
Experiment: Aurora 2 (Aurora A) kinase radioactivity scintillation assay using nickel chelate Flash plates
Assay type: biochemical
Conditions: 10 nM Aurora-A, 500 nM NuMA substrate, 1 μM ATP with [33P] ATP, 10 mM MgCl2, 30 minutes, 37° C.
Procedure: Aurora 1 and 2 (Respectively. Aurora B and A)
The inhibitory effect of compounds with respect to the Aurora 1 and 2 kinases is determined with a radioactivity scintillation assay using nickel chelate.
The kinase activity of Aurora is measured by the phosphorylation of NuMA-histidine substrate in the presence of radiolabelled ATP ([^33P] ATP) using 96 well Flash plates where the nickel-chelate is linked to the surface of the microplate. The amount of ^33P incorporated to the substrate NuMA is proportional to the aurora activity.
The Flash plates used are nickel-chelate 96 well plates (Perkin Elmer, model SMP107).
The products to be evaluated are incubated in a 100 μl reaction volume per well in the presence of 10 nM of Aurora-B or Aurora-A, 500 nM of NuMA substrate in the following buffer: 50 mM of NaCl, 5 mM MgCl2, (Aurora-B) or 10 mM MgCl2 (Aurora-A) and 1 mM of DTT at 37° C.
80 μL of enzyme/substrate incubation buffer is distributed in each well, followed by 10 μL of solution of compound to be measured with various concentrations. The reaction is started by adding 1 μM of ATP (final concentration) containing 0.2 μCi of [^33P] ATP (10 μL). After 30 minutes of incubation the reaction is stopped by removal of the reaction mixture and each well is washed twice with 300 μl of buffer Tris/HCl. The radioactivity is measured in each well using a Packard Top count scintillation counter instrument.
The enzymatic activity is expressed as counts per minute obtained in 30 minutes after subtraction of the background noise (reaction medium without enzyme). The measurement is expressed as percentage of inhibition of Aurora activity versus the control. To generate IC50 values, compounds of the invention are tested at different concentration and the percentage of inhibition are plotted as function of compound concentration, IC50s are calculated using the Xlfit 4 curve fitting software.

First: Cc1cc(C2C3=C(CNCC3=O)Nc3n[nH]cc32)ccc1O (stereo not shown) [Example 1, 4-(4-Hydroxy-3-methyl-phenyl)-2,4,6,7,8,9-hexahydro-pyrazolo[3,4-b]-1,7-naphthyridin-5-one; compound with trifluoro-acetic acid]
Second: Cc1ccc(Oc2cccc(C3C4=C(CNCC4=O)Nc4n[nH]cc43)c2)cc1 (stereo not shown) [Example 11, 4-(3-p-Tolyloxy-phenyl)-2,4,6,7,8,9-hexahydro-pyrazolo[3,4-b]-1,7-naphthyridin-5-one; compound with trifluoro-acetic acid]
The IC50 of the first is 6.6-fold higher: 7450 nM for the first, 1130 nM for the second. The second is the more potent here.

Compared with `CC(C)(C)c1ccc(Oc2cccc(C3C4=C(CNCC4=O)Nc4n[nH]cc43)c2)cc1` (stereo not shown) [Example 8, 4-[3-(4-tert-Butyl-phenoxy)-phenyl]-2,4,6,7,8,9-hexahydro-pyrazolo[3,4-b]-1,7-naphthyridin-5-one; compound with trifluoro-acetic acid], `O=C1CCCC2=C1C(c1cccc(Oc3ccc(Cl)cc3)c1)c1c[nH]nc1N2` (stereo not shown) [Example 22, 4-[3-(4-Chloro-phenoxy)-phenyl]-2,4,6,7,8,9-hexahydro-pyrazolo[3,4-b]quinolin-5-one; compound with trifluoro-acetic acid] is 3.3-fold higher in IC50: 696 nM for the first, 2320 nM for the second. The first is the more potent here.

Going from `O=C1CNCC2=C1C(c1ccc(-c3ccc(Cl)cc3)o1)c1c[nH]nc1N2` (stereo not shown) [Example 16, 4-[5-(4-Chloro-phenyl)-furan-2-yl]-2,4,6,7,8,9-hexahydro-pyrazolo[3,4-b]-1,7-naphthyridin-5-one; compound with trifluoro-acetic acid] to `O=C1CCCC2=C1C(c1ccc(-c3ccc(Cl)cc3)o1)c1c[nH]nc1N2` (stereo not shown) [Example 27, 4-[5-(4-Chloro-phenyl)-furan-2-yl]-2,4,6,7,8,9-hexahydro-pyrazolo[3,4-b]quinolin-5-one; compound with trifluoro-acetic acid], the IC50 rises from 1080 nM to 4920 nM (4.6-fold). The first is the more potent here.

`O=C1CNCC2=C1C(c1ccc(-c3ccccc3C(F)(F)F)o1)c1c[nH]nc1N2` (stereo not shown) [Example 17, 4-[5-(2-trifluoromethyl-phenyl)-furan-2-yl]-2,4,6,7,8,9-hexahydro-pyrazolo[3,4-b]-1,7-naphthyridin-5-one; compound with trifluoro-acetic acid] and `O=C1CCCC2=C1C(c1ccc(-c3ccccc3C(F)(F)F)o1)c1c[nH]nc1N2` (stereo not shown) [Example 26, 4-[5-(2-Trifluoromethyl-phenyl)-furan-2-yl]-2,4,6,7,8,9-hexahydro-pyrazolo[3,4-b]quinolin-5-one; compound with trifluoro-acetic acid] are within 1.5-fold of each other in IC50: 888 nM for the first, 1030 nM for the second.

`O=C1CNCC2=C1C(c1ccc(-c3cccc(C(F)(F)F)c3)o1)c1c[nH]nc1N2` (stereo not shown) [Example 18, 4-[5-(3-trifluoromethyl-phenyl)-furan-2-yl]-2,4,6,7,8,9-hexahydro-pyrazolo[3,4-b]-1,7-naphthyridin-5-one; compound with trifluoro-acetic acid] and `O=C1CCCC2=C1C(c1ccc(-c3cccc(C(F)(F)F)c3)o1)c1c[nH]nc1N2` (stereo not shown) [Example 25, 4-[5-(3-Trifluoromethyl-phenyl)-furan-2-yl]-2,4,6,7,8,9-hexahydro-pyrazolo[3,4-b]quinolin-5-one; compound with trifluoro-acetic acid] are within 1.5-fold of each other in IC50: 2150 nM for the first, 3070 nM for the second.

First: O=C1CNCC2=C1C(c1ccc(COc3ccc(Cl)c(Cl)c3)o1)c1c[nH]nc1N2 (stereo not shown) [Example 19, 4-[5-(3,4-Dichloro-phenoxymethyl)-furan-2-yl]-2,4,6,7,8,9-hexahydro-pyrazolo[3,4-b]-1,7-naphthyridin-5-one; compound with trifluoro-acetic acid]
Second: O=C1CCCC2=C1C(c1ccc(COc3ccc(Cl)c(Cl)c3)o1)c1c[nH]nc1N2 (stereo not shown) [Example 24, 4-[5-(3,4-Dichloro-phenoxymethyl)-furan-2-yl]-2,4,6,7,8,9-hexahydro-pyrazolo[3,4-b]quinolin-5-one; compound with trifluoro-acetic acid]
The IC50 of the first is 29-fold higher: 8390 nM for the first, 291 nM for the second.

Work on `O=C1CCCC2=C1C(c1ccc(-c3cccc(Cl)c3)o1)c1c[nH]nc1N2` (stereo not shown) [Example 23] yielded an IC50 of 2410 nM.
